We go through five compounds from patent US20240209028A1, “CNP COMPOUNDS” (priority 2022, published 2024).

A short description of data set [1]: High-Molecular-Weight-Protein (HMWP) formation by SEC-UPLC. To be noted: increase over two weeks at 37° C. The data set is classed as physicochemical. The procedure, abridged:
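Formulations at pH 4.0 or 6.5 incubated quiescently for two weeks at 37 °C; HMWP (peaks eluting before monomer, % of total peptide area) measured by SEC-UPLC, pH 2.4 mobile phase with 50% isopropanol, 50 °C, UV 215 nm. Value is HMWP increase, normalized to two weeks if needed.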
(In general: In gel filtration, larger molecules generally elute earlier.)

Data set [2] in a line: PK of CNP compounds after i.v. and s.c. administration to rats. The settings on record: male, Sprague Dawley, in vivo, rat; for clearance: read-out: Cl (L/hr/kg), i.v. administration (converted); for bioavailability: s.c. bioavailability, read-out: F (%), s.c. administration. The procedure, abridged:
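Plasma exposure was quantified by protein precipitation and turboflow LC-MS/MS in SRM mode. Rats received either 100 nmol/kg intravenously or 300 nmol/kg subcutaneously, with sublingual blood taken at baseline and at points up to 72 h. Per-animal NCA gave clearance as Dose/AUCinf, and results are averaged over 4-6 animals.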

Setting [3] is: iv, i.v., about 100 nmol/kg, read-out: T½ (hr), i.v. administration (converted).
[4] abbreviates: sc, s.c., about 300 nmol/kg, read-out: T½ (hr), s.c. administration (converted).

Where two headings read alike, the source gives them in different places. Starred links: 1 amine or outer side, 2 acyl side, 3 side chain; linkers in the order of their positions; H or OH if unused. Positions of bridges follow the written chain, without caps; N, C: chain ends. Residues, ends and D or L forms follow the SMILES beside them. *: point of attachment. C18 diacid = O=C(O)CCCCCCCCCCCCCCCCC(=O)*; γGlu = O=C(O)[C@H](CCC(=O)[*:2])N[*:1]; AEEA = NCCOCCOCC(=O)O

As for `CC[C@H](C)[C@@H]1NC(=O)[C@H](CCCNC(=N)N)NC(=O)[C@H](CC(=O)O)NC(=O)[C@H](CC(C)C)NC(=O)[C@@H]2CCCN2C(=O)[C@H](CC(C)C)NC(=O)CNC(=O)[C@H](Cc2ccccc2)NC(=O)[C@@H](NC(=O)CNC(=O)[C@H](CO)NC(=O)[C@H](CO)NC(=O)[C@H](CC(C)C)NC(=O)CNC(=O)[C@H](CCCCN)NC(=O)[C@H](CCCCN)NC(=O)[C@H](CCC(N)=O)NC(=O)[C@H](C)NC(=O)CNC(=O)[C@H](CCC(=O)O)NC(=O)[C@H](Cc2ccc(O)cc2)NC(=O)COCCOCCNC(=O)COCCOCCNC(=O)COCCOCCNC(=O)COCCOCCNC(=O)CC[C@H](NC(=O)CCCCCCCCCCCCCCCCC(=O)O)C(=O)O)CSSC[C@@H](C(=O)O)NC(=O)CNC(=O)[C@H](CC(C)C)NC(=O)CNC(=O)[C@H](CO)NC(=O)[C@H](CC(C)C)NC(=O)[C@H](CO)NC(=O)CNC1=O` [compound 1392] ({C18 diacid-γGlu-AEEA-AEEA-AEEA-AEEA}-YEGAQKKGLSSGCFGLPLDRIGSLSGLGC-OH; disulfide 13-29), the “2-Week HMWP formation at pH 6.5 (%), % relative to total peak area” value in data set [1] is recorded as 0.33%. The clearance in data set [2] (iv, i.v., about 100 nmol/kg) is 0.00799 L/h/kg. For the same compound, in data set [2] (setting [3]), the half-life is 5.72 h.
The matching figures for `CC[C@H](C)[C@@H]1NC(=O)[C@H](CCCNC(=N)N)NC(=O)[C@H](CC(=O)O)NC(=O)[C@H](CC(C)C)NC(=O)[C@@H]2CCCN2C(=O)[C@H](CC(C)C)NC(=O)CNC(=O)[C@H](Cc2ccccc2)NC(=O)[C@@H](NC(=O)CNC(=O)[C@H](CCC(N)=O)NC(=O)[C@H](CO)NC(=O)CNC(=O)CNC(=O)[C@H](CCCCN)NC(=O)[C@H](CCCCN)NC(=O)[C@H](CCC(N)=O)NC(=O)[C@H](C)NC(=O)CNC(=O)[C@H](Cc2c[nH]cn2)NC(=O)[C@H](Cc2ccc(O)cc2)NC(=O)COCCOCCNC(=O)COCCOCCNC(=O)COCCOCCNC(=O)COCCOCCNC(=O)CC[C@H](NC(=O)CC[C@H](NC(=O)CCCCCCCCCCCCCCCCC(=O)O)C(=O)O)C(=O)O)CSSC[C@@H](C(=O)O)NC(=O)CNC(=O)[C@H](CC(C)C)NC(=O)CNC(=O)[C@H](CO)NC(=O)[C@H](CC(C)C)NC(=O)[C@H](CO)NC(=O)CNC1=O` [compound 1434] ({C18 diacid-γGlu-γGlu-AEEA-AEEA-AEEA-AEEA}-YHGAQKKGGSQGCFGLPLDRIGSLSGLGC-OH; disulfide 13-29): 3.2%, 0.00764 L/h/kg and 8.34 h.
As for `CC[C@H](C)[C@@H]1NC(=O)[C@H](CCCNC(=N)N)NC(=O)[C@H](CC(=O)O)NC(=O)[C@H](CC(C)C)NC(=O)[C@@H]2CCCN2C(=O)[C@H](CC(C)C)NC(=O)CNC(=O)[C@H](Cc2ccccc2)NC(=O)[C@@H](NC(=O)CNC(=O)[C@H](CCC(N)=O)NC(=O)[C@H](CO)NC(=O)[C@H](CO)NC(=O)CNC(=O)[C@H](CCCCN)NC(=O)[C@H](CCCCN)NC(=O)[C@H](CCC(N)=O)NC(=O)[C@H](C)NC(=O)CNC(=O)[C@@H]2CCCN2C(=O)[C@H](C)NC(=O)[C@H](CCC(N)=O)NC(=O)CNC(=O)COCCOCCNC(=O)COCCOCCNC(=O)CC[C@H](NC(=O)CCCCCCCCCCCCCCCCC(=O)O)C(=O)O)CSSC[C@@H](C(=O)O)NC(=O)CNC(=O)[C@H](CC(C)C)NC(=O)CNC(=O)[C@H](CO)NC(=O)[C@H](CC(C)C)NC(=O)[C@H](CO)NC(=O)CNC1=O` [compound 9384] ({C18 diacid-γGlu-AEEA-AEEA}-GQAPGAQKKGSSQGCFGLPLDRIGSLSGLGC-OH; disulfide 15-31; C-terminus assumed), the “2-Week HMWP formation at pH 6.5 (%), % relative to total peak area” value in data set [1] turned out to be 1.5%. Besides, in data set [2] (iv, i.v., about 100 nmol/kg), the clearance was 0.00493 L/h/kg. For the same compound, the half-life was 9.15 h in data set [2] (setting [3]) and 9.47 h in data set [2] (setting [4]). Moreover, in data set [2] (sc, about 300 nmol/kg), the bioavailability is 49.7%.
Taken in the same sequence, the figures for `CC[C@H](C)[C@@H]1NC(=O)[C@H](CCCNC(=N)N)NC(=O)[C@H](CC(=O)O)NC(=O)[C@H](CC(C)C)NC(=O)[C@@H]2CCCN2C(=O)[C@H](CC(C)C)NC(=O)CNC(=O)[C@H](Cc2ccccc2)NC(=O)[C@@H](NC(=O)CNC(=O)[C@H](CCC(N)=O)NC(=O)[C@H](CO)NC(=O)[C@H](CC(C)C)NC(=O)CNC(=O)[C@H](CCCCN)NC(=O)[C@H](CCCCN)NC(=O)[C@H](CCC(N)=O)NC(=O)[C@H](C)NC(=O)CNC(=O)[C@H](CCCCN)NC(=O)[C@H](Cc2ccc(O)cc2)NC(=O)[C@H](CCCCN)NC(=O)[C@H](CCCNC(=N)N)NC(=O)[C@H](C)NC(=O)COCCOCCNC(=O)COCCOCCNC(=O)COCCOCCNC(=O)COCCOCCNC(=O)CC[C@H](NC(=O)CC[C@H](NC(=O)CC[C@H](NC(=O)CC[C@H](NC(=O)CC[C@H](NC(=O)CCCCCCCCCCCCCCCCC(=O)O)C(=O)O)C(=O)O)C(=O)O)C(=O)O)C(=O)O)CSSC[C@@H](C(=O)O)NC(=O)CNC(=O)[C@H](CC(C)C)NC(=O)CNC(=O)[C@H](CO)NC(=O)[C@H](CC(C)C)NC(=O)[C@H](CO)NC(=O)CNC1=O` [compound 9407] ({C18 diacid-γGlu-γGlu-γGlu-γGlu-γGlu-AEEA-AEEA-AEEA-AEEA}-ARKYKGAQKKGLSQGCFGLPLDRIGSLSGLGC-OH; disulfide 16-32) were 12%, 0.00515 L/h/kg, 15.2 h, 14.9 h and 37.2%.
As for `CC[C@H](C)[C@@H]1NC(=O)[C@H](CCCNC(=N)N)NC(=O)[C@H](CC(=O)O)NC(=O)[C@H](CC(C)C)NC(=O)[C@@H]2CCCN2C(=O)[C@H](CC(C)C)NC(=O)CNC(=O)[C@H](Cc2ccccc2)NC(=O)[C@@H](NC(=O)CNC(=O)[C@H](CCC(N)=O)NC(=O)[C@H](CO)NC(=O)CNC(=O)CNC(=O)[C@H](CCCCN)NC(=O)[C@H](CCCCN)NC(=O)[C@H](CCC(N)=O)NC(=O)[C@H](C)NC(=O)CNC(=O)[C@H](CCCCN)NC(=O)[C@H](Cc2ccc(O)cc2)NC(=O)COCCOCCNC(=O)COCCOCCNC(=O)COCCOCCNC(=O)COCCOCCNC(=O)CC[C@H](NC(=O)CC[C@H](NC(=O)CCCCCCCCCCCCCCCCC(=O)O)C(=O)O)C(=O)O)CSSC[C@@H](C(=O)O)NC(=O)CNC(=O)[C@H](CC(C)C)NC(=O)CNC(=O)[C@H](CO)NC(=O)[C@H](CC(C)C)NC(=O)[C@H](CO)NC(=O)CNC1=O` [compound 9435] ({C18 diacid-γGlu-γGlu-AEEA-AEEA-AEEA-AEEA}-YKGAQKKGGSQGCFGLPLDRIGSLSGLGC-OH; disulfide 13-29; C-terminus assumed), the “2-Week HMWP formation at pH 4.0 (%), % relative to total peak area” value in data set [1] (pH 4.0) is 1.07%. For the same compound, in data set [1], the “2-Week HMWP formation at pH 6.5 (%), % relative to total peak area” value is recorded as 1.93%. The clearance in data set [2] (iv, i.v., about 100 nmol/kg) was 0.00458 L/h/kg. Moreover, the half-life in data set [2] (setting [3]) is 10.4 h.
